We go through eleven compounds from article PMC12344719 (Journal of Chemical Information and Modeling, 2025).

Where two headings read alike, the source gives them in different places.

By IC50 is commonly meant the concentration at which inhibition is half-maximal.

The nature of one series: in vitro. To be noted: African green monkey (Cercopithecus aethiops).
Series [1] concerns Vero cells. The following applies: African green monkey (Cercopithecus aethiops).
Series [2] deals with Vero cells. Also noted: method as in Yang et al. To be noted: 72 h condition without hypoxia, ref Yang et al.; cited from earlier work.
Details of series [3]: method as in Liu et al. The following applies: ref Liu et al.; cited from earlier work.
In another series the test system is SARS-CoV-2 Mpro. To be noted: cited from earlier work.
Series [4] concerns SARS-CoV-2. The format is cell-based.
Series [5] has as its system SARS-CoV-2. The series can be described thus: microbe, parasite or virus in culture. It is filed as cell-based.
For series [6] the following is noted: toxicological studies in animals; cited from earlier work.

The compound `Cc1cccc(C)c1NC(=O)CCCSCc1cccc(S(=O)(=O)N(C)C)c1` [MolPort-005-766-143] returned a CC50 at 72 h in the series “in vitro” of 15.7 µM. The compound also gave a CC20 with Vero cells [1] (72 h) of 3.532 µM.
The compound `CC(=O)c1[nH]c(C)c(C(=O)N(C)CCCOc2cccc(Cl)c2)c1C` [MolPort-046-186-743] returned a CC50 at 72 h in “in vitro” of 27.6 µM. The same compound showed a CC20 with Vero cells [1] (72 h) of 7.583 µM.
For `CCN(CC)CCCC(C)Nc1ccnc2cc(Cl)ccc12` (stereo not shown) [chloroquine], the values for the CC50 (in the series with Vero cells [2]; in series [3]) were 92.4 µM and 273 µM, respectively.
The compound `CN(CCCCCc1cc(-c2cccc(F)c2)n[nH]1)C(=O)C(C)(C)C` [MolPort-009-093-282] registered a CC50 in the series “in vitro” of 47.1 µM. For the same compound, in the series with Vero cells [1], the CC20 was determined as 9.418 µM.
The compound `COc1cccc(SCC(=O)N(Cc2ccccn2)C2CCCCC2)c1` [MolPort-045-920-671] yielded a CC50 at 72 h in “in vitro” of 16.1 µM. The CC20 in the series on Vero cells [1] (72 h) came out at 2.772 µM.
In the case of `C=CCNC(=O)c1csc(-c2ccc(OCCC)cc2F)n1` [MolPort-006-606-981], the CC50 in the series “in vitro” worked out at 19.4 µM. This compound also came in with a CC20 with Vero cells [1] of 3.964 µM.
For the compound `COc1ccccc1OCCCOc1ccc([N+](=O)[O-])cc1Cl` [MolPort-002-201-288], the CC50 in the series “in vitro” came to 20.6 µM. In addition, the CC20 with Vero cells [1] was found to be 3.031 µM.
As to `O=C[C@H](C[C@@H]1CCNC1=O)NC(=O)[C@H](Cc1cccc(F)c1)NC(=O)c1cc2ccccc2[nH]1` [11b], in the series on SARS-CoV-2 Mpro, the IC50 was 0.04 µM.
The compound `CCOc1ccc2nc(C(=O)CCC(=O)OC(CCl)CCl)sc2c1` [MolPort-004-953-083] came in with a CC50 at 72 h in the series “in vitro” of 45.5 µM. Also, the CC20 in the series with Vero cells [1] (72 h) turned out to be 29.30 µM.
As to `CCS(=O)(=O)N(C)c1ccc2sc(C(=O)NCCC3=CCCCC3)cc2c1` [MolPort-010-778-422], the CC50 at 72 h in the series “in vitro” is 5.07 µM. Also, the CC20 in the series with Vero cells [1] (72 h) amounted to 2.258 µM. In addition, in the series with SARS-CoV-2 [4], the “log reduction (viral titer)” value was 5.6 log. Moreover, the “SI (selectivity index)” value with SARS-CoV-2 [5] was found to be 569.9. The compound also displayed a half-inhibitory concentration (IC50) in the series on SARS-CoV-2 [5] (Severe acute respiratory syndrome coronavirus 2, Vero, 2 h) of 0.0089 µM.
For `CCN(CCO)CCCC(C)Nc1ccnc2cc(Cl)ccc12` (stereo not shown) [hydroxychloroquine], the CC50 was 56.2 µM in the series with Vero cells [2] and 250 µM in series [3]. Moreover, the “less toxic than chloroquine” value in series [6] is “approximately 40%”.
